Assay results published in PubChem BioAssay AID1996.
Converted amounts (≈) assume the structure as drawn.

Conditions: buffer; pH 7.4; 200.0 µM

SMILES	solubility kinetic [µg/mL]
Clc1ccc(CNc2ccc(N3CCN(Cc4ccccc4)CC3)cc2)cc1	1 (≈ 2.55 µM)
COCCN(C(=O)COC(=O)/C=C/c1cccc(C(F)(F)F)c1)c1c(N)n(CC(C)C)c(=O)[nH]c1=O	5.7 (≈ 11.1 µM)
O=C(Nc1cccc(NC(=O)c2ccc([N+](=O)[O-])o2)c1)c1ccco1	4.5 (≈ 13.2 µM)
CC1(C)CC(=O)C(C(O)c2ccccc2)C(C)(C)N1 (stereo not given)	35.2 (≈ 135 µM)
CC(=O)C1=C(O)C(=O)N(c2ccc(O)cc2)C1c1ccc(Cl)cc1 (stereo not given)	42.6 (≈ 124 µM)
CC1CC(C)CN(c2cc(N(C)CCO)c([N+](=O)[O-])c3nonc23)C1 (stereo not given)	52.1 (≈ 149 µM)
Cc1ccc(N(Cc2cc(=O)[nH]c3ccccc23)C(=O)C(C)C)c(C)c1	17.7 (≈ 50.8 µM)
CCc1cc(=O)[nH]c(SCc2cccnc2)n1	> 37.1
O=C(O)c1ccc(Nc2nc(-c3cccnc3)cs2)cc1	> 44.6
CCCOc1ccc2nc(C)c(CCC)c(SC(=N)N)c2c1.Cl	33
CC(C)S(=O)(=O)c1cnc(N2CCOCC2)nc1N	> 43
Cc1ccc(C(=O)COc2ncnc3cc(Cl)ccc23)cc1	0.4 (≈ 1.28 µM)
Cc1[nH]cnc1C(=O)N/N=C/c1c(Cl)cccc1Cl	> 44.6
CCc1nnc(NC(=O)CN2C(=O)NC3(CC(C)CC(C)(C)C3)C2=O)s1 (stereo not given)	> 56.9
Nc1ccncc1N	12.2 (≈ 112 µM)
O/N=C1\CCSc2ccc(F)cc21	23.4 (≈ 119 µM)
Cc1ncc(S(=O)(=O)C(C)(C)C)c(N)n1	27.2 (≈ 119 µM)
Fc1ccc(Oc2nc(-c3ccccn3)nc3ccccc23)cc1	17.3 (≈ 54.5 µM)
Cc1nnc(NC(=O)CSc2nnc(C)c(=O)n2N)s1	> 47
N#CC1(c2ccccc2)CCC(=O)N1c1ccccc1 (stereo not given)	> 39.3
CN(C(=O)CSc1nnc(C2CC2)n1C1CC1)C1(C#N)CCCCC1	> 53.9
Cc1sc2ncnc(NS(=O)(=O)c3ccc(Cl)cc3)c2c1C	47.8 (≈ 135 µM)
COc1ccc(C)cc1S(=O)(=O)n1cnc(C)c1	> 39.9
Cc1nc([N+](=O)[O-])cn1CC(O)c1ccc(-c2ccccc2)cc1 (stereo not given)	17.1 (≈ 52.9 µM)
COc1cc(CN2CCCC(C)C2)ccc1OCc1ccccc1 (stereo not given)	42.9 (≈ 132 µM)
O=C(Nc1cccc(Cl)c1)C1COc2ccccc2O1 (stereo not given)	3.1 (≈ 10.7 µM)
O=C(CC1CCC1)NC(c1ccccc1)c1ccccc1	6.5 (≈ 23.3 µM)
O=C(COC(=O)C12CC3CC(CC(C3)C1)C2)Nc1nccs1	< 0.3
Cc1ccc(NC(=O)CN2c3cccc4cccc(c34)S2(=O)=O)cc1	3.8 (≈ 10.8 µM)
CN(C(=O)c1ccccc1OCc1ccc(Cl)cc1)c1ccccc1	10.7 (≈ 30.4 µM)

Results, then the compound that gave them:

solubility kinetic [µg/mL]	SMILES
25.2 (≈ 122 µM)	CCNCC(=O)Nc1c(C)cccc1C
0.3 (≈ 0.928 µM)	Cc1cc(C)cc(NC(=O)Nc2ccc(N3CCCCC3)cc2)c1
> 42.6	CN1CCN(C(=O)c2cc([N+](=O)[O-])ccc2Cl)CC1
> 39.6	CC1=NCCN1CCNC(=O)Nc1ccc(F)cc1
2.3 (≈ 8.12 µM)	Cc1cccc(-c2nc(C#N)c(NCC3CCCO3)o2)c1 (stereo not given)
34.7 (≈ 76.9 µM)	CSc1ncccc1C(=O)OCC(=O)Nc1cccc(S(=O)(=O)N2CCOCC2)c1
> 44.2	COc1ccc(C)cc1NC(=S)N1CC(C)OC(C)C1 (stereo not given)
41 (≈ 143 µM)	COC(=O)C1CCN(C(=O)/C(C)=C\c2ccccc2)CC1
> 49.3	CC(C)C(=O)Nc1ccc2c(c1)nc(CCN1CCCCC1)n2C
> 47.5	CNC(=O)Cn1nc(C)c(S(=O)(=O)N2CCOCC2)c1C
10.2 (≈ 23 µM)	Cn1c(N)c(C(=O)COC(=O)CNC(=O)c2ccc(Cl)cc2Cl)c(=O)n(C)c1=O
2.8 (≈ 8.91 µM)	O=C(NC(=S)Nc1ccc2oc(=O)ccc2c1)c1ccco1
47.4 (≈ 133 µM)	Cc1ccc(C(=O)NC(=S)N2CCN(C)CC2)cc1Br
1.8 (≈ 5.73 µM)	CCOc1ccc(NC(=S)NC(=O)Cc2ccccc2)cc1
> 41.6	CCOC(=O)N1CCN(C(=O)Nc2ccccc2)CC1
> 34.7	O=C(c1cc2ccccc2o1)N1CCOCC1
4.9 (≈ 17.1 µM)	O=C(NC1CCSc2ccccc21)c1ccc(F)cc1 (stereo not given)
38.3 (≈ 133 µM)	CCOC(=O)Cn1c2ccc(C)cc2c2nc(C)sc21
9.3 (≈ 32 µM)	CC(C)CNC(=S)N1CCC(Cc2ccccc2)CC1
> 38.4	Cl.O=C(NCc1ccccc1)N1CCNCC1
> 45.8	CC(NC(=O)c1ccncc1)c1ccc(Br)cc1 (stereo not given)
> 45.7	CC(Sc1nccn1C)C(=O)Nc1ccc(C(N)=O)cc1 (stereo not given)
1.3 (≈ 4.43 µM)	COc1ccc(C(=O)n2cc(C(C)=O)c3ccccc32)cc1
> 43.9	CN(C)CCNC(=O)COc1cccc2c1OC(C)(C)C2
> 62.2	COc1ccc(C(CNS(=O)(=O)c2cccc(F)c2)N2CCCC2)cc1.Cl (stereo not given)
36.4 (≈ 138 µM)	O=Cc1ccc(OCC(=O)NCC2CCCO2)cc1 (stereo not given)
26.8	COC(=O)c1ccccc1NC(=O)c1cc[n+](C)cc1
> 35.9	C/C(=N\NC(=O)c1cccnc1)c1ccccc1
> 51.3	O=C(Cc1ccc(Br)cc1)OCC(=O)N1CCOCC1
> 36.1	O=C(NN1CCOCC1)c1cccc(Cl)c1
